Consider 17 compounds from patent publication US20240279240A1, “HETEROCYCLIC DERIVATIVES AS JANUS KINASE INHIBITORS” (CHIESI FARMACEUTICI S.P.A., priority 2021, published 2024).

SMILES strings stand for the structures. Some results are limits rather than exact numbers.

One assay addresses JAK 1 (Homo sapiens, UniProt P23458). In words: Biochemical potency on JAK1, TR-FRET LANCE Ultra kinase assay (examples 1-99). The settings on record: ATP at Km (20 μM), read-out: JAK1 inhibitory activity (pIC50 class) (converted). A digest of the protocol: (§1)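 LANCE Ultra TR-FRET with ULight-JAK-1 (Tyr1023) peptide at 30/50/20/10 nM and ATP (~Km) at 20/0.7/0.2/12 μM for JAK1/JAK2/JAK3/TYK2; enzymes 0.15/0.083/0.025/0.144 ng/μL. 1.5 h at r.t., EDTA stop, Eu-anti-phosphotyrosine read. 11-point 5-fold series from 20 μM; IC50 by variable-slope fit.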

For the next assay, the target named is JAK 2 (Homo sapiens, UniProt O60674). Description: Biochemical potency on JAK2, TR-FRET LANCE Ultra kinase assay (examples 1-99). The settings on record: ATP at Km (0.7 μM), read-out: JAK2 inhibitory activity (pIC50 class) (converted). The essentials: as §1
Another assay addresses TYK2 (Homo sapiens, UniProt P29597). Description: Biochemical potency on Tyk2, TR-FRET LANCE Ultra kinase assay (examples 1-99). The settings on record: ATP at Km (12 μM), read-out: Tyk2 inhibitory activity (pIC50 class) (converted). The essentials: as §1
The next assay deals with T1, JAK 3 (Homo sapiens, UniProt P52333).
T1 sequence (P52333 1-1124): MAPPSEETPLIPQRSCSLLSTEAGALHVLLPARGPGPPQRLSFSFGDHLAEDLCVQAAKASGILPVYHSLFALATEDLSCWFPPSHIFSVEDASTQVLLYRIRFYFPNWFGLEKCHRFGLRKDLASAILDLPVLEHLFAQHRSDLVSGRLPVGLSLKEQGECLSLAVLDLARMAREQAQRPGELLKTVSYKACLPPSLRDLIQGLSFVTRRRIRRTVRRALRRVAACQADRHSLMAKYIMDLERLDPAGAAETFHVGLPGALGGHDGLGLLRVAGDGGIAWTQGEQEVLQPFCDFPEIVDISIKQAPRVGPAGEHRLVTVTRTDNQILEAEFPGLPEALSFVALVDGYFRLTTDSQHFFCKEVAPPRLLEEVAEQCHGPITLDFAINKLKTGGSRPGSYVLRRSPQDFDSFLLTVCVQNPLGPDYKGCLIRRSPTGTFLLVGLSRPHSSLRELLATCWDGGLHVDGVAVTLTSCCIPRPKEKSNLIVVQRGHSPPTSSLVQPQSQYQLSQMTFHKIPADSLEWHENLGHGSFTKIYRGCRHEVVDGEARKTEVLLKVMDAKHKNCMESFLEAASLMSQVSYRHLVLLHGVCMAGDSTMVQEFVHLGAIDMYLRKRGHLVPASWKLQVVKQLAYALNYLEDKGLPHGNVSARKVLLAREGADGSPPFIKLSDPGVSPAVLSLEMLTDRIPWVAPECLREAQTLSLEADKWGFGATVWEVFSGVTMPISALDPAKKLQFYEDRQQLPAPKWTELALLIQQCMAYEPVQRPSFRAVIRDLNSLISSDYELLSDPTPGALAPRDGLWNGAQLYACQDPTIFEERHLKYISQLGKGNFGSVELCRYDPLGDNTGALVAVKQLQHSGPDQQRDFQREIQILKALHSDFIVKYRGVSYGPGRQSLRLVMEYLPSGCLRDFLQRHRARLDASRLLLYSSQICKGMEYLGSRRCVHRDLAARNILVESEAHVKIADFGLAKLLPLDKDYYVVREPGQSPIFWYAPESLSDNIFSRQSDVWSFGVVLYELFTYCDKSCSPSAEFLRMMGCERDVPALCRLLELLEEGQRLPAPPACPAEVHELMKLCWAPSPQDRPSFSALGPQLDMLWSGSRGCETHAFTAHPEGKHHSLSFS
In words: Biochemical potency on JAK3, TR-FRET LANCE Ultra kinase assay (examples 1-99). The settings on record: ATP at Km (0.2 μM), read-out: JAK3 inhibitory activity (pIC50 class) (converted). The essentials: as §1

Chain of JAK 1 (P23458 whole entry): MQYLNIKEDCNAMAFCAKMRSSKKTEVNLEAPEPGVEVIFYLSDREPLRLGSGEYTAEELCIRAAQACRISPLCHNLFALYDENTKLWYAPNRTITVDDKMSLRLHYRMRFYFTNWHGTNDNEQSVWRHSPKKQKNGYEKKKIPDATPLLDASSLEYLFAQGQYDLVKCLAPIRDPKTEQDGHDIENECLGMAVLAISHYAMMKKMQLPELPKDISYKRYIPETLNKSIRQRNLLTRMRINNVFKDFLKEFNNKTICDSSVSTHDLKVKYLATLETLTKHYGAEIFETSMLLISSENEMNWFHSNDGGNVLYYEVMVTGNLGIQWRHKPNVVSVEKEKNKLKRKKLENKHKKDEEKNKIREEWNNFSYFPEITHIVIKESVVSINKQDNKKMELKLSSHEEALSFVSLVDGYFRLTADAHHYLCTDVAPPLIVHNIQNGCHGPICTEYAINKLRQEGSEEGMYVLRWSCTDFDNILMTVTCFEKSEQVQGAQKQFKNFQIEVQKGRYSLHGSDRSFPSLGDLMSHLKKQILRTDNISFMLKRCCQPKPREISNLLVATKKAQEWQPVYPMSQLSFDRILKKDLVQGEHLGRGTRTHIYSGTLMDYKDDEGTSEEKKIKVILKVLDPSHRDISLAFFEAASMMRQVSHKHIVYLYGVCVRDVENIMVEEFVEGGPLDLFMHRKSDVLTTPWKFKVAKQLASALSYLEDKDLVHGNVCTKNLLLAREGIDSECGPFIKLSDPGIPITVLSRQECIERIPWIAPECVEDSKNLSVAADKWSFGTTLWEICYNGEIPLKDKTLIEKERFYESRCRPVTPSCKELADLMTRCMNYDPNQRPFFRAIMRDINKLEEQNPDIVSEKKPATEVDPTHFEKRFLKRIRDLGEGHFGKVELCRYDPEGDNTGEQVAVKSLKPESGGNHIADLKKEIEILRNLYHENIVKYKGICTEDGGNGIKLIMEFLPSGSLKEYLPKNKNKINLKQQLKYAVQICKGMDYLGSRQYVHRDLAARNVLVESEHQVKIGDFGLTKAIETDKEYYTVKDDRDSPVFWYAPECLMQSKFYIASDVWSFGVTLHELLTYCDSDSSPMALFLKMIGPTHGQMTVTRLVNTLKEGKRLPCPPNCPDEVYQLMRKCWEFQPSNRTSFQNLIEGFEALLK
Chain of JAK 2 (O60674 whole entry): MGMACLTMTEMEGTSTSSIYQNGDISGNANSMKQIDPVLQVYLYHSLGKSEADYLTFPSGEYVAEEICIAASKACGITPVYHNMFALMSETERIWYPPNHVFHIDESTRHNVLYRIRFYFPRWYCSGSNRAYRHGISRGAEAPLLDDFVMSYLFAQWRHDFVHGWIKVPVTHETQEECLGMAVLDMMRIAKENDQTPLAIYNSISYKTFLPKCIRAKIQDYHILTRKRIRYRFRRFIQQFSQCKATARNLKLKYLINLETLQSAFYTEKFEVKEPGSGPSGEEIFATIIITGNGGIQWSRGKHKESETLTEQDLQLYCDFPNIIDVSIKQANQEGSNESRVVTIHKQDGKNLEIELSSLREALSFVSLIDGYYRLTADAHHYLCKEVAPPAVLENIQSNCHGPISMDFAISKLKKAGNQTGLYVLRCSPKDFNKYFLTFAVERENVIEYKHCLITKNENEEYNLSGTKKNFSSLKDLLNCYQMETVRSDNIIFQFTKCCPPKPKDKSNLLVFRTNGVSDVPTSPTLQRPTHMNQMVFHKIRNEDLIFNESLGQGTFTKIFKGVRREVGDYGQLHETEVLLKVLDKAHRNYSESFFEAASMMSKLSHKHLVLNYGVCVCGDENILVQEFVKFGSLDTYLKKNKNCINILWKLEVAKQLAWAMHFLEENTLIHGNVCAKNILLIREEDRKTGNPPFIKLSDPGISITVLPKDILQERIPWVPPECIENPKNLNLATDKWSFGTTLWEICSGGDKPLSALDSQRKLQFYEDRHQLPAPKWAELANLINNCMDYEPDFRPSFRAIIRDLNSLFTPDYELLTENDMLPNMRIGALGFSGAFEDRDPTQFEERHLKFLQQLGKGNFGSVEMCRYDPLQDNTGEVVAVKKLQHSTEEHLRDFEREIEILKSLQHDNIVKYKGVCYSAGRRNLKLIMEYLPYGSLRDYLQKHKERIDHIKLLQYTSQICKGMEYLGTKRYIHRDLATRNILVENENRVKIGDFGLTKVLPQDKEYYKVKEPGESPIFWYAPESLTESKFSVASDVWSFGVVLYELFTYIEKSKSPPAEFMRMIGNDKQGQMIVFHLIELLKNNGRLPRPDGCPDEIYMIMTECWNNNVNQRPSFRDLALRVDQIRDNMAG
Chain of TYK2 (P29597 whole entry): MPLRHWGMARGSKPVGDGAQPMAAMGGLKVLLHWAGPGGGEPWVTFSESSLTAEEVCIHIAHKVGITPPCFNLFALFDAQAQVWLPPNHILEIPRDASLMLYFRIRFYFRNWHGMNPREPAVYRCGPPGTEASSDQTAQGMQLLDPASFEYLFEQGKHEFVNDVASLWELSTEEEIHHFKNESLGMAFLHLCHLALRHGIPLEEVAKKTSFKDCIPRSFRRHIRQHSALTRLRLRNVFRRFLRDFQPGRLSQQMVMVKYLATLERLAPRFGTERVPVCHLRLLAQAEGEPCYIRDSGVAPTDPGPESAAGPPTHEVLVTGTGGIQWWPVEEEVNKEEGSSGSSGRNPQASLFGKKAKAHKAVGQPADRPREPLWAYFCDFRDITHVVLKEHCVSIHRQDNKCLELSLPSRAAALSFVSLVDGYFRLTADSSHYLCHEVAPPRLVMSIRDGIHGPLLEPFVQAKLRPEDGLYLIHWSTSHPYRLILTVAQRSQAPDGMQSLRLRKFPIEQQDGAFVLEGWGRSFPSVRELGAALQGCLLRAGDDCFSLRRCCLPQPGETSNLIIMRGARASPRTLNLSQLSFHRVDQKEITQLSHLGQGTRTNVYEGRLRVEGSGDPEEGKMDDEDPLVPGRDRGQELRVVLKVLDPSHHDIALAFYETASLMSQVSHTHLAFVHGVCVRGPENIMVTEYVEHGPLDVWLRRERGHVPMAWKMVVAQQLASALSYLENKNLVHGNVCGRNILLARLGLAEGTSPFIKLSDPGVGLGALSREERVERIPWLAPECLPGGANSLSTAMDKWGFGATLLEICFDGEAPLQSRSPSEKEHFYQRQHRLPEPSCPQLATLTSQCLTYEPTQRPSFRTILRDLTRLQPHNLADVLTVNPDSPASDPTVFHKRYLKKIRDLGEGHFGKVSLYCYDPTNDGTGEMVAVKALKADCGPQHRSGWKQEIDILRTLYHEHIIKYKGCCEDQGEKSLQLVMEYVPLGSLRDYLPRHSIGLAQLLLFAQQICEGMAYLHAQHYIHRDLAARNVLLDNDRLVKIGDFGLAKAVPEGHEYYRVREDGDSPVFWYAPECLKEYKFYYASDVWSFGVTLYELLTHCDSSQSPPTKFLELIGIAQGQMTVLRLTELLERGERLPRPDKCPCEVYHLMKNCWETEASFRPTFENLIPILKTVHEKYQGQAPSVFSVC

`COc1ccc(Cl)cc1-n1ncc2c(NCCNC(C)=O)nc(-c3cnn4cccnc34)cc21` [Example 53, N-(2-((1-(5-chloro-2-methoxyphenyl)-6-(pyrazolo[1,5-a]pyrimidin-3-yl)-1H-pyrazolo[4,3-c]pyridin-4-yl)amino)ethyl)acetamide]: the IC50 is 5.01 to 50.1 nM at JAK 1, over 50.1 nM on JAK 2, over 50.1 nM at TYK2 and over 50.1 nM at JAK 3.
Take `CNC(=O)CNc1nc(-c2cnn3cccnc23)cc2c1cnn2-c1cc(Cl)ccc1OC` [Example 54, 2-((1-(5-chloro-2-methoxyphenyl)-6-(pyrazolo[1,5-a]pyrimidin-3-yl)-1H-pyrazolo[4,3-c]pyridin-4-yl)amino)-N-methylacetamide]: the IC50 was 5.01 to 50.1 nM at JAK 1, 5.01 to 50.1 nM on JAK 2, over 50.1 nM on TYK2 and 5.01 to 50.1 nM at JAK 3.
As to `COc1ccc(Cl)cc1-n1ncc2c(NC(C)=O)nc(-c3cnn4cccnc34)cc21` [Example 55, N-(1-(5-chloro-2-methoxyphenyl)-6-(pyrazolo[1,5-a]pyrimidin-3-yl)-1H-pyrazolo[4,3-c]pyridin-4-yl)acetamide], the IC50 was 5.01 to 50.1 nM on JAK 1, 5.01 to 50.1 nM on JAK 2, over 50.1 nM on TYK2 and over 50.1 nM on JAK 3.
For the compound `COc1ccc(Cl)cc1-n1ncc2c(N)nc(-c3cnn4cccnc34)cc21` [Example 56, 1-(5-chloro-2-methoxyphenyl)-6-(pyrazolo[1,5-a]pyrimidin-3-yl)-1H-pyrazolo[4,3-c]pyridin-4-amine], the IC50 at JAK 1, at JAK 2, at TYK2 and on JAK 3 was 5.01 to 50.1 nM throughout.
In the case of `COc1ccc(Cl)cc1-n1ncc2c(O)nc(-c3cnn4cccnc34)cc21` [Example 57, 1-(5-chloro-2-methoxyphenyl)-6-(pyrazolo[1,5-a]pyrimidin-3-yl)-1H-pyrazolo[4,3-c]pyridin-4-ol], the IC50 is 5.01 to 50.1 nM at JAK 1, at most 5.01 nM at JAK 2, 5.01 to 50.1 nM on TYK2 and 5.01 to 50.1 nM on JAK 3.
Consider `COc1cc(O)c(F)cc1-n1nc(C)c2cnc(-c3cnn4cccnc34)cc21` [Example 58, 2-fluoro-5-methoxy-4-(3-methyl-6-(pyrazolo[1,5-a]pyrimidin-3-yl)-1H-pyrazolo[4,3-c]pyridin-1-yl)phenol], for which the IC50 at JAK 1 is at most 5.01 nM; at JAK 2, at most 5.01 nM; at TYK2, 5.01 to 50.1 nM; at JAK 3 it was at most 5.01 nM.
Turning to `COc1cc(O)c(Cl)cc1-n1nc(C)c2cnc(-c3cnn4cccnc34)cc21` [Example 59, 2-chloro-5-methoxy-4-(3-methyl-6-(pyrazolo[1,5-a]pyrimidin-3-yl)-1H-pyrazolo[4,3-c]pyridin-1-yl)phenol], the IC50 at JAK 1 was at most 5.01 nM; on JAK 2, at most 5.01 nM; at TYK2, 5.01 to 50.1 nM; at JAK 3, at most 5.01 nM.
With `COc1cc(O)c(C)cc1-n1nc(C)c2cnc(-c3cnn4cccnc34)cc21` [Example 60, 5-methoxy-2-methyl-4-(3-methyl-6-(pyrazolo[1,5-a]pyrimidin-3-yl)-1H-pyrazolo[4,3-c]pyridin-1-yl)phenol], the IC50 is at most 5.01 nM on JAK 1, at most 5.01 nM on JAK 2, 5.01 to 50.1 nM at TYK2 and at most 5.01 nM at JAK 3.
As to `COc1cnc(Cl)cc1-n1nc(C)c2cnc(-c3cnn4cccnc34)cc21` [Example 61, 1-(2-chloro-5-methoxypyridin-4-yl)-3-methyl-6-(pyrazolo[1,5-a]pyrimidin-3-yl)-1H-pyrazolo[4,3-c]pyridine], the IC50 at JAK 1 is 5.01 to 50.1 nM; at JAK 2, 5.01 to 50.1 nM; at TYK2, over 50.1 nM; on JAK 3 it was 5.01 to 50.1 nM.
On to `Cc1nn(-c2cc(Cl)ccc2CO)c2cc(-c3cnn4cccnc34)ncc12` [Example 62, (4-chloro-2-(3-methyl-6-(pyrazolo[1,5-a]pyrimidin-3-yl)-1H-pyrazolo[4,3-c]pyridin-1-yl)phenyl)methanol], for which the IC50 on JAK 1 was over 50.1 nM; at JAK 2 it was 5.01 to 50.1 nM; at TYK2, over 50.1 nM; on JAK 3 it was 5.01 to 50.1 nM.
Turning to `Cc1nn(-c2cc(Br)ccc2OC(F)F)c2cc(-c3cnn4cccnc34)ncc12` [Example 63, 1-(5-bromo-2-(difluoromethoxy)phenyl)-3-methyl-6-(pyrazolo[1,5-a]pyrimidin-3-yl)-1H-pyrazolo[4,3-c]pyridine], the IC50 is at most 5.01 nM on JAK 1, at most 5.01 nM on JAK 2, 5.01 to 50.1 nM at TYK2 and at most 5.01 nM on JAK 3.
For `Cc1nn(-c2cc(C#N)ccc2OC(F)F)c2cc(-c3cnn4cccnc34)ncc12` [Example 64, 4-(difluoromethoxy)-3-(3-methyl-6-(pyrazolo[1,5-a]pyrimidin-3-yl)-1H-pyrazolo[4,3-c]pyridin-1-yl)benzonitrile], the IC50 was 5.01 to 50.1 nM on JAK 1, at most 5.01 nM on JAK 2, 5.01 to 50.1 nM at TYK2 and at most 5.01 nM on JAK 3.
For the compound `Cc1ccc(OC(F)F)c(-n2nc(C)c3cnc(-c4cnn5cccnc45)cc32)c1` [Example 65, 1-(2-(difluoromethoxy)-5-methylphenyl)-3-methyl-6-(pyrazolo[1,5-a]pyrimidin-3-yl)-1H-pyrazolo[4,3-c]pyridine], the IC50 was 5.01 to 50.1 nM on JAK 1, 5.01 to 50.1 nM on JAK 2, 5.01 to 50.1 nM at TYK2 and at most 5.01 nM on JAK 3.
`Cc1nn(-c2cc(C(=O)Nc3nccs3)ccc2OC(F)F)c2cc(-c3cnn4cccnc34)ncc12` [Example 66, 4-(difluoromethoxy)-3-(3-methyl-6-(pyrazolo[1,5-a]pyrimidin-3-yl)-1H-pyrazolo[4,3-c]pyridin-1-yl)-N-(thiazol-2-yl)benzamide]: the IC50 on JAK 1 was 5.01 to 50.1 nM; on JAK 2 it was 5.01 to 50.1 nM; at TYK2, over 50.1 nM; at JAK 3, at most 5.01 nM.
With `CNC(=O)CSc1ccc(OC(F)F)c(-n2nc(C)c3cnc(-c4cnn5cccnc45)cc32)c1` [Example 67, 2-((4-(difluoromethoxy)-3-(3-methyl-6-(pyrazolo[1,5-a]pyrimidin-3-yl)-1H-pyrazolo[4,3-c]pyridin-1-yl)phenyl)thio)-N-methylacetamide], the IC50 is 5.01 to 50.1 nM on JAK 1, 5.01 to 50.1 nM on JAK 2, over 50.1 nM at TYK2 and 5.01 to 50.1 nM at JAK 3.
Take `Cc1nn(-c2cc(SCC(N)=O)ccc2OC(F)F)c2cc(-c3cnn4cccnc34)ncc12` [Example 68, 2-((4-(difluoromethoxy)-3-(3-methyl-6-(pyrazolo[1,5-a]pyrimidin-3-yl)-1H-pyrazolo[4,3-c]pyridin-1-yl)phenyl)thio)acetamide]: the IC50 was 5.01 to 50.1 nM at JAK 1, at most 5.01 nM on JAK 2, over 50.1 nM on TYK2 and at most 5.01 nM on JAK 3.
Consider `Cc1nn(-c2cc(SCC(=O)NCCO)ccc2OC(F)F)c2cc(-c3cnn4cccnc34)ncc12` [Example 69, 2-((4-(difluoromethoxy)-3-(3-methyl-6-(pyrazolo[1,5-a]pyrimidin-3-yl)-1H-pyrazolo[4,3-c]pyridin-1-yl)phenyl)thio)-N-(2-hydroxyethyl)acetamide], for which the IC50 was 5.01 to 50.1 nM at JAK 1, 5.01 to 50.1 nM at JAK 2, over 50.1 nM at TYK2 and 5.01 to 50.1 nM at JAK 3.
